Article PMC4658428 (Frontiers in Microbiology, 2015)

How the values were obtained:
Assay type in all cases: cell-based
[1] = tested on: S. meliloti strain SMP4B (ΔldtRSMc-pBBR1MCS-5::LdtR(L61A))
[2] = tested on: S. meliloti strain SMP4C (ΔldtRSMc-pBBR1MCS-5::LdtR(F64A))
[3] = tested on: LdtR mutant R37A, lacZ reporter in B. subtilis
[4] = tested on: S. meliloti strain SMP4A (ΔldtRSMc-pBBR1MCS-5::LdtR(T43A))
[5] = tested on: LdtR mutant Y81A, lacZ reporter in B. subtilis

`CCc1oc2ccccc2c1C(=O)c1cc(Br)c(O)c(Br)c1` [benzbromarone] was tested, and the “Growth rate constant, k” value [1] was 0.056 ± 0.005 generations/h, the Mean generation time [1] was 17.9 h and the “Growth rate constant, k” value [2] was 0.058 ± 0.003 generations/h. For the same molecule, the Mean generation time [2] was 17.2 h, the “decrease in β-galactosidase activity” value [3] was “around 40%” and the “Growth rate constant, k” value [4] was 0.056 ± 0.004 generations/h. The Mean generation time [4] was 17.9 h and the “decrease in β-galactosidase activity” value [5] was “around 40%”.
